One assay relates to ZR-75-1 cells. The assay can be described thus: ZR-75-1 proliferation assay. Particulars: Alamar Blue, read-out: ZR75-1 proliferation assay, EC50 [M] (arithmetic mean). Type of assay: cell-based. The source says:
(§1) For compound characterization cell survival assays were routinely run in two cell lines. ZR-75-1 is a breast carcinoma cell line containing a focal KAT6A amplification and high KAT6A protein expression. Proliferation of this cell line is inhibited upon treatment with KAT6A inhibitors. As a negative control cell line MDA-MB-436 were used. These cells carry a […] deletion of the KAT6A gene, have a low KAT6A protein expression and are not growth inhibited upon treatment with KAT6A inhibitors.
(§2) For measurements cell lines were plated at the below indicated concentration per […] in 96-well plates in a humidified incubator at 37° C. and 5% CO2.
ZR-75-1 (ATCC, CRL-1500; breast carcinoma); 3000 cells per well; culture medium: RPMI 1640 (Biochrom #FG 1215) medium containing 2.5% FBS (Biochrom #S0615).
(§3) Each sample was prepared as triplicate and rim wells were excluded. Plates were incubated at 37° C. and 5% CO2 for 144 h. Cell viability was measured by adding 10 μL of Alamar Blue Reagent (Invitrogen #DAL 1100) and plates were incubated for 2 h at 37° C. and 5% CO2. Fluorescence was measured at 590 nm wavelength with a Tecan Spark or Victor X3 MTP-Reader (PerkinElmer).
Background: Resazurin is reduced to fluorescent resorufin, in cell work by metabolically active cells.

Another assay relates to LCLC97TM1. The experiment in a line: LCLC97TM1 proliferation assay. In kind it is cell-based. Particulars: read-out: LCLC97TM1 proliferation assay, EC50 [M] (arithmetic mean).
The test system of a further assay is MDA-MB-436 cells. The experiment in a line: MDA-MB-436 proliferation assay (negative control cell line). Type of assay: cell-based. Particulars: 144 h, Alamar Blue, read-out: MDA-MB-436 proliferation assay, EC50 [M] (arithmetic mean).
Excerpt: as §1, §2
MDA-MB-436 (CLS, 300278; breast adenocarcinoma); 3000 cells per well; culture medium: DMEM/Ham's F12 (Biochrom #FG 4815) medium containing 2.5% FBS (Biochrom #S0615).
as §3

Assay [1] relates to ESR1 transcription in MVLN cells. The experiment in a line: MVLN reporter assay: repression of ESR1 transcription (luciferase signal). In kind it is cell-based. Particulars: luciferase signal after 24 h, read-out: MVLN reporter assay, IC50 [M] (arithmetic mean). The procedure, abridged: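 To control for cell loss, Alamar Blue (2 h, 530/590 nm) precedes the 24 h luciferase measurement. The reporter is an ERE from the Xenopus vitellogenin A2 gene driving luciferase, stably transfected into ER-expressing MVLN cells; duplicate samples.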
A general note: In a reporter assay the amount or activity of a reporter protein is the signal.

Assay [2] concerns the target T1, Recombinant human His-tagged Kat6a protein (amino acids 194-810) (Homo sapiens, UniProt Q92794).
T1 construct: Kat6a protein (amino acids 194-810); His
The assay can be described thus: Kat6a activity assay (TR-FRET, acetylation of Histone-H4-derived peptide). In kind it is biochemical. Particulars: 60 mins at 22° C., 220 nM H4 peptide, 600 nM Acetyl Coenzyme A, read-out: KAT6A - DPF/HAT domain IC50 [mol/l] (arithmetic mean).

The mark [3] stands for this setting: Homo sapiens, LCLC-97TM1, LCLC97TM1.

Where two headings read alike, the source gives them in different places.

T1 sequence (Q92794 194-810): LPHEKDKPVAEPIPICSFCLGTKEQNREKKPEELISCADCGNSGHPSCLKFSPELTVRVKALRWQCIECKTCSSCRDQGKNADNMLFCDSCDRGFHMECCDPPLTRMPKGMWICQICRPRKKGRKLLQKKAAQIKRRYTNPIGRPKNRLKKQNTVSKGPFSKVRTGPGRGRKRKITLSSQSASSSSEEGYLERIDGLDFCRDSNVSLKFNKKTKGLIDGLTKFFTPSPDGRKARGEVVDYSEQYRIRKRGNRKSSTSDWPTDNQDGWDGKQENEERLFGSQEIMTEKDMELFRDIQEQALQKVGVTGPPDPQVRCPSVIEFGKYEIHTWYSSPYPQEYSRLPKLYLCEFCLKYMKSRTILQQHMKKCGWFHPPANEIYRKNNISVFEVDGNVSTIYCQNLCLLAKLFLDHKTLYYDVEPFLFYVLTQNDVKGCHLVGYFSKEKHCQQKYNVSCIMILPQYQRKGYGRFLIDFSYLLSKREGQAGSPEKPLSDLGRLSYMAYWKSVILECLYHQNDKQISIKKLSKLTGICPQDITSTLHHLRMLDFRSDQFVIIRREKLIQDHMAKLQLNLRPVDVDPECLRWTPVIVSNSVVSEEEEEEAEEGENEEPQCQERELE

`Cc1ccc2cccc(S(=O)(=O)NC(=O)c3cc4c(F)cc(N5CCC5C(F)F)cc4o3)c2n1` (racemic) [Example 160, 6-[2-(Difluoromethyl)azetidin-1-yl]-4-fluoro-N-(2-methylquinoline-8-sulfonyl)-1-benzofuran-2-carboxamide (rac)]: the EC50 in the assay with ZR-75-1 cells (Homo sapiens, ZR-75-1, 144 h) was 4.34e-06 M; in the assay on LCLC97TM1 (setting [3]), over 2e-05 M; in the assay with MDA-MB-436 cells (Homo sapiens), over 2e-05 M. The IC50 amounted to 1.45e-06 M in assay [1] (Homo sapiens, MVLN, 24 h) and 203 nM in assay [2].

`Cc1ccc2cccc(S(=O)(=O)NC(=O)c3cc4c(F)cc(N5CCC5C(C)(C)O)cc4o3)c2n1` (racemic) [Example 161, 4-Fluoro-6-[2-(1-hydroxy-1-methyl-ethyl)azetidin-1-yl]-N-[(2-methyl-8-quinolyl)sulfonyl]benzofuran-2-carboxamide (rac)]: the EC50 with ZR-75-1 cells (Homo sapiens, ZR-75-1, 144 h) was 7.56e-06 M; in the assay with LCLC97TM1 (setting [3]) it was over 2e-05 M; in the assay with MDA-MB-436 cells (Homo sapiens), over 2e-05 M. The IC50 is 5.92e-06 M in assay [1] (Homo sapiens, MVLN, 24 h) and 1090 nM in assay [2].

With `CCOc1ccccc1S(=O)(=O)NC(=O)c1cc2c(F)cc(N3CCC3C(C)(C)O)cc2o1` (racemic) [Example 162, N-(2-ethoxybenzene-1-sulfonyl)-4-fluoro-6-[2-(2-hydroxypropan-2-yl)azetidin-1-yl]-1-benzofuran-2-carboxamide (rac)], the EC50 is over 2e-05 M with ZR-75-1 cells (Homo sapiens, ZR-75-1, 144 h); over 2e-05 M in the assay on LCLC97TM1 (setting [3]); over 2e-05 M in the assay with MDA-MB-436 cells (Homo sapiens). The IC50 in assay [1] (Homo sapiens, MVLN, 24 h) worked out at 1.95e-05 M; in assay [2], 1990 nM.

Consider `CCOc1ccccc1S(=O)(=O)NC(=O)c1cc2c(F)cc(N3CCC3C(F)F)cc2o1` (racemic) [Example 163, 6-[2-(Difluoromethyl)azetidin-1-yl]-N-(2-ethoxybenzene-1-sulfonyl)-4-fluoro-1-benzofuran-2-carboxamide (rac)], for which the EC50 in the assay with ZR-75-1 cells (Homo sapiens, ZR-75-1, 144 h) is 6.67e-06 M; with LCLC97TM1 (setting [3]), over 2e-05 M; in the assay on MDA-MB-436 cells (Homo sapiens), over 2e-05 M. Further, the IC50 worked out at 3.67e-06 M in assay [1] (Homo sapiens, MVLN, 24 h) and 862 nM in assay [2].

For `COc1ccc(N2CCCC2c2ccccc2)cc1S(=O)(=O)NC(=O)c1cc2c(F)cc(N3CCC3)cc2o1` (racemic) [Example 201, 6-(Azetidin-1-yl)-4-fluoro-N-[2-methoxy-5-(2-phenylpyrrolidin-1-yl)benzene-1-sulfonyl]-1-benzofuran-2-carboxamide (rac)], the EC50 in the assay with ZR-75-1 cells (Homo sapiens, ZR-75-1, 144 h) is 3.26e-06 M; in the assay on LCLC97TM1 (setting [3]), 2.81e-06 M; in the assay on MDA-MB-436 cells (Homo sapiens) it was over 2e-05 M. The IC50 was 6.48e-07 M in assay [1] (Homo sapiens, MVLN, 24 h) and 0.814 nM in assay [2].

For `CC(Oc1ccccc1S(=O)(=O)NC(=O)c1cc2c(F)cc(N3CCC3)cc2o1)C(F)(F)F` (single isomer, unassigned) [Example 14], the values for the EC50 with ZR-75-1 cells (144 h), with LCLC97TM1 (LCLC97TM1) and with MDA-MB-436 cells (Homo sapiens) were 9.93e-08 M, 1.39e-06 M and over 2e-05 M, respectively. For the same compound, the IC50 in assay [1] (Homo sapiens, MVLN, 24 h) was 6.93e-08 M; in assay [2] it was 28.1 nM.

In the case of `CC(Oc1ccccc1S(=O)(=O)NC(=O)c1cc2c(F)cc(N3CCC3)cc2o1)C(F)(F)F` (single isomer, unassigned) [Example 15], the EC50 in the assay with ZR-75-1 cells (144 h) was 2.46e-07 M; in the assay on LCLC97TM1 (LCLC97TM1), 6.28e-07 M; in the assay with MDA-MB-436 cells, over 2e-05 M. For the same compound, the IC50 in assay [1] was determined as 7.55e-08 M; in assay [2], 47.2 nM.

For the compound `CCc1ccc(OC2CCCC2)c(S(=O)(=O)NC(=O)c2cc3c(F)cc(N4CCC4)cc3o2)c1` [Example 3, 6-(Azetidin-1-yl)-N-[2-(cyclopentyloxy)-5-ethylbenzene-1-sulfonyl]-4-fluoro-1-benzofuran-2-carboxamide], the EC50 in the assay with ZR-75-1 cells (Homo sapiens, ZR-75-1, 144 h) is 2.32e-07 M; in the assay with LCLC97TM1 (setting [3]), 1.11e-06 M; in the assay with MDA-MB-436 cells (Homo sapiens), over 2e-05 M. For the same compound, the IC50 came to 5.25e-08 M in assay [1] (Homo sapiens, MVLN, 24 h) and 8.1 nM in assay [2].

With `CCC(C)Oc1ccc(C)cc1S(=O)(=O)NC(=O)c1cc2c(F)cc(N3CCC3)cc2o1` (stereo not shown) [Example 4, 6-(Azetidin-1-yl)-N-(2-{[butan-2-yl]oxy}-5-methylbenzene-1-sulfonyl)-4-fluoro-1-benzofuran-2-carboxamide], the EC50 was 1.14e-07 M with ZR-75-1 cells (Homo sapiens, ZR-75-1, 144 h); 6.42e-07 M with LCLC97TM1 (setting [3]); over 2e-05 M with MDA-MB-436 cells (Homo sapiens). For the same compound, the IC50 was found to be 6.3e-08 M in assay [1] (Homo sapiens, MVLN, 24 h) and 8.72 nM in assay [2].

With `O=C(NS(=O)(=O)c1c(OCc2ccccc2)cccc1OC1CCC1)c1cc2c(F)cc(N3CCC3)cc2o1` [Example 5, 6-(Azetidin-1-yl)-N-[2-(benzyloxy)-6-(cyclobutyloxy)benzene-1-sulfonyl]-4-fluoro-1-benzofuran-2-carboxamide], the EC50 with ZR-75-1 cells (Homo sapiens, ZR-75-1, 144 h) is 3.57e-06 M; with LCLC97TM1 (setting [3]), 9.88e-06 M; with MDA-MB-436 cells (Homo sapiens) it was over 2e-05 M. In addition, the IC50 in assay [1] (Homo sapiens, MVLN, 24 h) amounted to 6.43e-08 M; in assay [2], 1.42 nM.

Consider `CCOc1ccc(C)cc1S(=O)(=O)NC(=O)c1cc2c(F)cc(N3CCC3)cc2o1` [Example 6, 6-(Azetidin-1-yl)-N-(2-ethoxy-5-methylbenzene-1-sulfonyl)-4-fluoro-1-benzofuran-2-carboxamide], for which the EC50 is 3.28e-08 M in the assay on ZR-75-1 cells (Homo sapiens, ZR-75-1, 144 h); 3.12e-07 M with LCLC97TM1 (setting [3]); over 2e-05 M in the assay on MDA-MB-436 cells (Homo sapiens). Moreover, the IC50 in assay [1] (Homo sapiens, MVLN, 24 h) was 7.45e-08 M; in assay [2], 34.9 nM.

In the case of `CCOc1cccc(OCc2ccccc2)c1S(=O)(=O)NC(=O)c1cc2c(F)cc(N3CCC3)cc2o1` [Example 7, 6-(Azetidin-1-yl)-N-[2-(benzyloxy)-6-ethoxybenzene-1-sulfonyl]-4-fluoro-1-benzofuran-2-carboxamide], the EC50 in the assay on ZR-75-1 cells (Homo sapiens, ZR-75-1, 144 h) was 3.7e-07 M; with LCLC97TM1 (setting [3]) it was 2.92e-07 M; in the assay on MDA-MB-436 cells (Homo sapiens), over 2e-05 M. Also, the IC50 turned out to be 1.23e-07 M in assay [1] (Homo sapiens, MVLN, 24 h) and 4.15 nM in assay [2].

For `CCCOc1cccc(OCC)c1S(=O)(=O)NC(=O)c1cc2c(F)cc(N3CCC3)cc2o1` [Example 10, 6-(Azetidin-1-yl)-N-(2-ethoxy-6-propoxybenzene-1-sulfonyl)-4-fluoro-1-benzofuran-2-carboxamide], the EC50 in the assay with ZR-75-1 cells (Homo sapiens, ZR-75-1, 144 h) is 2.21e-07 M; with LCLC97TM1 (setting [3]), 6.61e-07 M; in the assay on MDA-MB-436 cells (Homo sapiens) it was over 2e-05 M. Further, the IC50 worked out at 1.36e-07 M in assay [1] (Homo sapiens, MVLN, 24 h) and 7.12 nM in assay [2].

On to `CCCOc1cccc(OCCC)c1S(=O)(=O)NC(=O)c1cc2c(F)cc(N3CCC3)cc2o1` [Example 17, 6-(Azetidin-1-yl)-N-(2,6-dipropoxybenzene-1-sulfonyl)-4-fluoro-1-benzofuran-2-carboxamide], for which the EC50 is 2.76e-07 M in the assay with ZR-75-1 cells (Homo sapiens, ZR-75-1, 144 h); 8.49e-07 M in the assay with LCLC97TM1 (setting [3]); over 2e-05 M in the assay with MDA-MB-436 cells (Homo sapiens). Moreover, the IC50 amounted to 1.76e-07 M in assay [1] (Homo sapiens, MVLN, 24 h) and 4.47 nM in assay [2].

As to `O=C(NS(=O)(=O)c1ccccc1-c1ccccc1)c1cc2c(F)cc(N3CCC3)cc2o1` [Example 20, Sodium {[6-(azetidin-1-yl)-4-fluoro-1-benzofuran-2-yl]carbonyl}([biphenyl]-2-ylsulfonyl)azanide], the EC50 is 2.87e-07 M in the assay with ZR-75-1 cells (Homo sapiens, ZR-75-1, 144 h); 1.42e-06 M with LCLC97TM1 (setting [3]); over 2e-05 M in the assay on MDA-MB-436 cells. Besides, the IC50 was 3.03e-07 M in assay [1] and 34.2 nM in assay [2].

For `CCOc1ccc(C(C)(C)C)cc1S(=O)(=O)NC(=O)c1cc2c(F)cc(N3CCC3)cc2o1` [Example 78, 6-(azetidin-1-yl)-N-(5-tert-butyl-2-ethoxybenzene-1-sulfonyl)-4-fluoro-1-benzofuran-2-carboxamide], the EC50 is 5.87e-08 M with ZR-75-1 cells (Homo sapiens, ZR-75-1, 144 h); 5.75e-08 M in the assay with LCLC97TM1 (setting [3]); over 2e-05 M in the assay with MDA-MB-436 cells (Homo sapiens). The IC50 in assay [1] (Homo sapiens, MVLN, 24 h) came to 4.95e-09 M; in assay [2], 1.41 nM.

Turning to `CCOc1ccccc1S(=O)(=O)NC(=O)c1cc2ccc(N3CC(C)(F)C3)cc2o1` [Example 116, N-(2-Ethoxybenzene-1-sulfonyl)-6-(3-fluoro-3-methylazetidin-1-yl)-1-benzofuran-2-carboxamide], the EC50 is 5.72e-06 M with ZR-75-1 cells (Homo sapiens, ZR-75-1, 144 h) and over 2e-05 M in the assay on LCLC97TM1 (setting [3]). For the same compound, the IC50 was found to be 1.45e-06 M in assay [1] (Homo sapiens, MVLN, 24 h) and 2290 nM in assay [2].

Consider `COc1ccc(C(C)(C)C)cc1S(=O)(=O)NC(=O)c1cc2c(F)cc(N3CCC3)cc2o1` [Example 127, 6-(Azetidin-1-yl)-N-(5-tert-butyl-2-methoxybenzene-1-sulfonyl)-4-fluoro-1-benzofuran-2-carboxamide], for which the EC50 in the assay on ZR-75-1 cells (Homo sapiens, ZR-75-1, 144 h) is 2.55e-08 M; in the assay on LCLC97TM1 (setting [3]) it was 5.73e-08 M; in the assay on MDA-MB-436 cells (Homo sapiens), over 2e-05 M. In assay [1] (Homo sapiens, MVLN, 24 h), the IC50 was 3.54e-09 M.
